Test results from the kinase profiling compilation of Christmann-Franck et al. (2016).

Experiments:
Test in all cases: KINOMEscan competition binding
Settings in all cases: compound 10.0 µM
TGFBR1 (human) = TGFBR1 (human) (UniProt P36897)
DYRK1B (human) = DYRK1B (human) (UniProt Q9Y463)
CDC42BPB (human) = CDC42BPB (human) (UniProt Q9Y5S2)
FRK (human) = FRK (human) (UniProt P42685)
LIMK2 (human) = LIMK2 (human) (UniProt P53671)
CLK2 (human) = CLK2 (human) (UniProt P49760)
CDK3 (human) = CDK3 (human) (UniProt Q00526)
FGFR3 (human) = FGFR3 (human) (UniProt P22607)
MAP3K5 (human) = MAP3K5 (human) (UniProt Q99683)
DAPK2 (human) = DAPK2 (human) (UniProt Q9UIK4)
ULK3 (human) = ULK3 (human) (UniProt Q6PHR2)
PIK3CD (human) = PIK3CD (human) (UniProt O00329)
RPS6KA6 KD1 (human) = RPS6KA6 KD1 (human) (UniProt Q9UK32)
CAMK2B (human) = CAMK2B (human) (UniProt Q13554)
MAPK1 (human) = MAPK1 (human) (UniProt P28482)
PHKG1 (human) = PHKG1 (human) (UniProt Q16816)
ULK2 (human) = ULK2 (human) (UniProt Q8IYT8)
AKT2 (human) = AKT2 (human) (UniProt P31751)
ADCK3 (human) = ADCK3 (human) (UniProt Q8NI60)
ERBB4 (human) = ERBB4 (human) (UniProt Q15303)
AURKB (human) = AURKB (human) (UniProt Q96GD4)
MAPKAPK5 (human) = MAPKAPK5 (human) (UniProt Q8IW41)
MAPK14 (human) = MAPK14 (human) (UniProt Q16539)
SRMS (human) = SRMS (human) (UniProt Q9H3Y6)
MST4 (human) = MST4 (human) (UniProt Q9P289)
RET (human) = RET (human) (UniProt P07949)
PKN2 (human) = PKN2 (human) (UniProt Q16513)
CDC2L2 (human) = CDC2L2 (human) (UniProt Q9UQ88)
PRKD1 (human) = PRKD1 (human) (UniProt Q15139)
LATS1 (human) = LATS1 (human) (UniProt O95835)
HIPK1 (human) = HIPK1 (human) (UniProt Q86Z02)
FGR (human) = FGR (human) (UniProt P09769)
RPS6KA6 KD2 (human) = RPS6KA6 KD2 (human) (UniProt Q9UK32)
DDR2 (human) = DDR2 (human) (UniProt Q16832)
ERBB2 (human) = ERBB2 (human) (UniProt P04626)
TLK2 (human) = TLK2 (human) (UniProt Q86UE8)
PRKG1 (human) = PRKG1 (human) (UniProt Q13976)
ACVR2A (human) = ACVR2A (human) (UniProt P27037)
SRPK3 (human) = SRPK3 (human) (UniProt Q9UPE1)
MAPK15 (human) = MAPK15 (human) (UniProt Q8TD08)

Chain of CDK3 (human) (Q00526 whole entry, looked up): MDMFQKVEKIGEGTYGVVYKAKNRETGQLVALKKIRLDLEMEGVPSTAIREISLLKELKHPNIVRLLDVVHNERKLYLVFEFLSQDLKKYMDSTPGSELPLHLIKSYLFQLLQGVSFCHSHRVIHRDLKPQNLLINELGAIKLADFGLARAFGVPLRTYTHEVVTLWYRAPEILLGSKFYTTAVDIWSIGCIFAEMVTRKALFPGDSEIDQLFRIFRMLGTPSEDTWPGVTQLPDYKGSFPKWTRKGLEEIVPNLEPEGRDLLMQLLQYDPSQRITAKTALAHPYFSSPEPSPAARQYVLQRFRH
Chain of LIMK2 (human) (P53671 whole entry, looked up): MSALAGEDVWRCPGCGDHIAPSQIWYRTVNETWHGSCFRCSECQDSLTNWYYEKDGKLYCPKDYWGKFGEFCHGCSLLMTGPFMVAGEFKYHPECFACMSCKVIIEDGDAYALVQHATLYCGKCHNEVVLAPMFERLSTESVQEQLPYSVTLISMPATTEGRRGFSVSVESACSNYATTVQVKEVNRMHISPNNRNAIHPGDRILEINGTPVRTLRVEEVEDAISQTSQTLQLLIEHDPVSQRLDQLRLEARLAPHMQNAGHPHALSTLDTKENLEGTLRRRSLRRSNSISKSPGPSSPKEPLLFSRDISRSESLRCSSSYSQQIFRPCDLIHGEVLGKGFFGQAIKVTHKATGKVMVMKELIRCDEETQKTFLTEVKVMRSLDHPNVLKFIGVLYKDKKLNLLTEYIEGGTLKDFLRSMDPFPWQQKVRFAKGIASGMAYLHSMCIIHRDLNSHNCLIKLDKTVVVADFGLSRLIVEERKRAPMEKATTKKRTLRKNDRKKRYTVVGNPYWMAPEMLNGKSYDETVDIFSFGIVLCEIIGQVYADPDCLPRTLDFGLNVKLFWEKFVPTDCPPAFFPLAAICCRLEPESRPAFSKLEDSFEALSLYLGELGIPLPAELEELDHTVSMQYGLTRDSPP
Chain of ADCK3 (human) (Q8NI60 whole entry, looked up): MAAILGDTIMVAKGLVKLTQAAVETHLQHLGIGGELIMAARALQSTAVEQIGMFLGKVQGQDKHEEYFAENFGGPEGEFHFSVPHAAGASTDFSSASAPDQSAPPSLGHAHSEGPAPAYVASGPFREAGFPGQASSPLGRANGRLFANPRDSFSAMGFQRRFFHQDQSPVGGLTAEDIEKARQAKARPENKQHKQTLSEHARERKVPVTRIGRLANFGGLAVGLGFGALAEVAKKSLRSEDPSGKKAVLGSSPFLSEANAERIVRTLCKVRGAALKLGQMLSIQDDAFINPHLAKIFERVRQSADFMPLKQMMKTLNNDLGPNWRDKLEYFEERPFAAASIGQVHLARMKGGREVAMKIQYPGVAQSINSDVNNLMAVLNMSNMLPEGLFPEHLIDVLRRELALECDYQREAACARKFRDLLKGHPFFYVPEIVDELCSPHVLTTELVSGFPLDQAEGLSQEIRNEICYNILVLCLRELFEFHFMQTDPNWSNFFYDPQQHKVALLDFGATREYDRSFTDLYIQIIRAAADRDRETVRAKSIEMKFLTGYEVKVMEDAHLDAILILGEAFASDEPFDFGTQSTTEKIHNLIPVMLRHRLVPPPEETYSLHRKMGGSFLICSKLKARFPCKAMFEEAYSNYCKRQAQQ
Chain of ACVR2A (human) (P27037 whole entry, looked up): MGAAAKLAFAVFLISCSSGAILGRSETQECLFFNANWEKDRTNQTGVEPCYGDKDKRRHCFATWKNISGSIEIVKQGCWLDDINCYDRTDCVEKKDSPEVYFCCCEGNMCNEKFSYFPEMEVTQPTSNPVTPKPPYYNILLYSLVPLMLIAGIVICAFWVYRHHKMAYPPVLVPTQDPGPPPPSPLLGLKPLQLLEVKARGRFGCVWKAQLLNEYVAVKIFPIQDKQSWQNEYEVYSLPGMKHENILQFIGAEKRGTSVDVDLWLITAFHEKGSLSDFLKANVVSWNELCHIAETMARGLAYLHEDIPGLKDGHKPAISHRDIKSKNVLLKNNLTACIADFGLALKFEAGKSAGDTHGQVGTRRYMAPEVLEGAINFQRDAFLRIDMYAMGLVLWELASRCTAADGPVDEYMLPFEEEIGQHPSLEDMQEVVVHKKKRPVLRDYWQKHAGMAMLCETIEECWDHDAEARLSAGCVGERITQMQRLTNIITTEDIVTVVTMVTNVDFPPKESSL
Chain of RPS6KA6 KD2 (human) (Q9UK32 whole entry, looked up): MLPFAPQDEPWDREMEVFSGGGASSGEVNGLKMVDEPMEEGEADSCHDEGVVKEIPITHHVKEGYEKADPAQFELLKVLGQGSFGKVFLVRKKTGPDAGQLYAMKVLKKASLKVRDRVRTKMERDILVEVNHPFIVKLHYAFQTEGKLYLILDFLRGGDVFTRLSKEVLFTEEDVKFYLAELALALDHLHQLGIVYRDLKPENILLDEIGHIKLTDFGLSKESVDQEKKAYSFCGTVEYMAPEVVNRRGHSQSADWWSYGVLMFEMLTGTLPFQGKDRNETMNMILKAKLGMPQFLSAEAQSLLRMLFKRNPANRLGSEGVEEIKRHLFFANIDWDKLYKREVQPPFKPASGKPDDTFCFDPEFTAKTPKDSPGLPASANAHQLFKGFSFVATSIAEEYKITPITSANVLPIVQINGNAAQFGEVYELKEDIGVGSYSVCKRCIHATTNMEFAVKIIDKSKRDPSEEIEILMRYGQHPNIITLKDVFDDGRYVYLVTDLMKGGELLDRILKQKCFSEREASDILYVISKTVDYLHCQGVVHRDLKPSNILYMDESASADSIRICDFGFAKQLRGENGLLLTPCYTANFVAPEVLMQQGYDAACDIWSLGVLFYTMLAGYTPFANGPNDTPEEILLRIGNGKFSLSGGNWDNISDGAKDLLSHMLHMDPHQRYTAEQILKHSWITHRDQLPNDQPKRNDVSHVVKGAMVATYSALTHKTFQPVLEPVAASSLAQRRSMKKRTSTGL
Chain of RPS6KA6 KD1 (human) (Q9UK32 whole entry, looked up): as above
Chain of MAPK1 (human) (P28482 whole entry, looked up): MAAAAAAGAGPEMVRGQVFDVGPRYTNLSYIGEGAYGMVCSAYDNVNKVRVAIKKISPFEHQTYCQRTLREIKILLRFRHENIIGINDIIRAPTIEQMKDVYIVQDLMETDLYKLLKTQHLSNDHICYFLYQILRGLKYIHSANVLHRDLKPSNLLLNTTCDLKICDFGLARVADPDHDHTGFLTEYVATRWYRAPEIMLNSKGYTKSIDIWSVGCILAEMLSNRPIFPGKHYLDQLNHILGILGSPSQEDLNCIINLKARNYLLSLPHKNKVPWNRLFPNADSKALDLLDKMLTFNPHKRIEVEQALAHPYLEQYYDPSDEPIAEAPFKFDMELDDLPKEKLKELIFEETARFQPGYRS
Chain of MST4 (human) (Q9P289 whole entry, looked up): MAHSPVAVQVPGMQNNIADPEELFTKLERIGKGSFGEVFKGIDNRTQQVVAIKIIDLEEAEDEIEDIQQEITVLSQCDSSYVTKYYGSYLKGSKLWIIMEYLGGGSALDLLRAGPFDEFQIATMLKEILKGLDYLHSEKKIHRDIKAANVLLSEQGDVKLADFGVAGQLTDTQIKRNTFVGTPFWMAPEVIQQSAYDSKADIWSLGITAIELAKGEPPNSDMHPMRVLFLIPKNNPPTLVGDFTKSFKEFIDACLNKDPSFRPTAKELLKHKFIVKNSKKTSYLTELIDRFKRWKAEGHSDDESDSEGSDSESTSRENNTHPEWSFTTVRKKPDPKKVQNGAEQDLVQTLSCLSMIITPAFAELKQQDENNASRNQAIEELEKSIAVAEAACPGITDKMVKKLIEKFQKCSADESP
Chain of ERBB2 (human) (P04626 whole entry, looked up): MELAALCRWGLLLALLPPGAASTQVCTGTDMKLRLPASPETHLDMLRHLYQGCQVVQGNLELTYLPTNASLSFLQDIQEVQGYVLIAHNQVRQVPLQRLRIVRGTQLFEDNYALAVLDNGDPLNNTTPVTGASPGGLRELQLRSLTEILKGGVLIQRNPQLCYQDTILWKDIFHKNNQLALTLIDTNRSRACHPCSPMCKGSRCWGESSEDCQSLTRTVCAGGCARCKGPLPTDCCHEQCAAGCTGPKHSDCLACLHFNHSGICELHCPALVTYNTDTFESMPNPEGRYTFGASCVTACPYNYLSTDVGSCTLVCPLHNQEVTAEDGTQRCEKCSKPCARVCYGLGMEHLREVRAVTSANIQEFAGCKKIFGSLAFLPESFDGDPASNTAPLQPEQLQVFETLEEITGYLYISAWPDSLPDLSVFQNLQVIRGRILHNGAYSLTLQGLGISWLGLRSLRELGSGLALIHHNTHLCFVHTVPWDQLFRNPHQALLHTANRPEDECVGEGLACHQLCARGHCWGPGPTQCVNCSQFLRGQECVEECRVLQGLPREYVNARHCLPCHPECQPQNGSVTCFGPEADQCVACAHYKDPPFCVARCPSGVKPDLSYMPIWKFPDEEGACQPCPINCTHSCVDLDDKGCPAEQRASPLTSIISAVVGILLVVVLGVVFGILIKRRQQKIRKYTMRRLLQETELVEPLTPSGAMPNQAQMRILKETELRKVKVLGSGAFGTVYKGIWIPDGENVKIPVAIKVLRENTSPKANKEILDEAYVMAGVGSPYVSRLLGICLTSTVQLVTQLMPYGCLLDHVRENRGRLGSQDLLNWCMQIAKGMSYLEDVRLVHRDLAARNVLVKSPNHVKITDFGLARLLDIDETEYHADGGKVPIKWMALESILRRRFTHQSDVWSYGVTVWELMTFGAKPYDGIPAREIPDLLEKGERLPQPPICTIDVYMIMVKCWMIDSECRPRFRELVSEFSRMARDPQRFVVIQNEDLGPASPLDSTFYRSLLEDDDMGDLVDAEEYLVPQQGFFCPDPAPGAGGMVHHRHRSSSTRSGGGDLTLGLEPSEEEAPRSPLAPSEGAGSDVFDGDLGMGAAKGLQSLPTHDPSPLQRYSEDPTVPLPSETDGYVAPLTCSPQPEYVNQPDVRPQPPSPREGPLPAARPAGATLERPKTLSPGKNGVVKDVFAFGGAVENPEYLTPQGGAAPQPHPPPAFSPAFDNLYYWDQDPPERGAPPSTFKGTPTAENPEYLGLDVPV

Structure (SMILES) | kinase still bound, per cent of control (TGFBR1 (human)) | kinase still bound, per cent of control (DYRK1B (human)) | kinase still bound, per cent of control (CDC42BPB (human)) | kinase still bound, per cent of control (FRK (human)) | kinase still bound, per cent of control (LIMK2 (human)) | kinase still bound, per cent of control (CLK2 (human)) | kinase still bound, per cent of control (CDK3 (human)) | kinase still bound, per cent of control (FGFR3 (human)) | kinase still bound, per cent of control (MAP3K5 (human)) | kinase still bound, per cent of control (DAPK2 (human)) | kinase still bound, per cent of control (ULK3 (human)) | kinase still bound, per cent of control (PIK3CD (human)) | kinase still bound, per cent of control (RPS6KA6 KD1 (human)) | kinase still bound, per cent of control (CAMK2B (human)) | kinase still bound, per cent of control (MAPK1 (human)) | kinase still bound, per cent of control (PHKG1 (human)) | kinase still bound, per cent of control (ULK2 (human)) | kinase still bound, per cent of control (AKT2 (human)) | kinase still bound, per cent of control (ADCK3 (human)) | kinase still bound, per cent of control (ERBB4 (human)) | also measured
Nc1ccc(-c2ccc3ncc4ccc(=O)n(-c5cccc(C(F)(F)F)c5)c4c3c2)cn1 | 100% | 97% | 96% | 100% | 89% | 15% | 100% | 75% | 100% | 100% | 100% | 14% | 80% | 100% | 100% | 100% | 95% | 100% | 88% | 100% | kinase still bound, per cent of control (AURKB (human)): 89%; kinase still bound, per cent of control (MAPKAPK5 (human)): 100%; kinase still bound, per cent of control (MAPK14 (human)): 100%; kinase still bound, per cent of control (SRMS (human)): 88%; kinase still bound, per cent of control (MST4 (human)): 73%; kinase still bound, per cent of control (RET (human)): 100%; kinase still bound, per cent of control (PKN2 (human)): 72%; kinase still bound, per cent of control (CDC2L2 (human)): 98%; kinase still bound, per cent of control (PRKD1 (human)): 87%; kinase still bound, per cent of control (LATS1 (human)): 100%; kinase still bound, per cent of control (HIPK1 (human)): 79%; kinase still bound, per cent of control (FGR (human)): 100%; kinase still bound, per cent of control (RPS6KA6 KD2 (human)): 70%; kinase still bound, per cent of control (DDR2 (human)): 99%; kinase still bound, per cent of control (ERBB2 (human)): 97%; kinase still bound, per cent of control (TLK2 (human)): 100%; kinase still bound, per cent of control (PRKG1 (human)): 83%; kinase still bound, per cent of control (ACVR2A (human)): 95%; kinase still bound, per cent of control (SRPK3 (human)): 95%; kinase still bound, per cent of control (MAPK15 (human)): 18%
Cn1c(=O)n(-c2ccc(C(C)(C)C#N)cc2)c2c3cc(-c4cnc5ccccc5c4)ccc3ncc21 | 100% | 100% | 100% | 100% | 100% | 100% | 100% | 100% | 100% | 100% | 100% | 7.2% | 100% | 100% | 100% | 100% | 100% | 100% | 100% | 100% | kinase still bound, per cent of control (AURKB (human)): 100%; kinase still bound, per cent of control (MAPKAPK5 (human)): 100%; kinase still bound, per cent of control (MAPK14 (human)): 100%; kinase still bound, per cent of control (SRMS (human)): 100%; kinase still bound, per cent of control (MST4 (human)): 100%; kinase still bound, per cent of control (RET (human)): 100%; kinase still bound, per cent of control (PKN2 (human)): 100%; kinase still bound, per cent of control (CDC2L2 (human)): 100%; kinase still bound, per cent of control (PRKD1 (human)): 100%; kinase still bound, per cent of control (LATS1 (human)): 100%; kinase still bound, per cent of control (HIPK1 (human)): 100%; kinase still bound, per cent of control (FGR (human)): 100%; kinase still bound, per cent of control (RPS6KA6 KD2 (human)): 100%; kinase still bound, per cent of control (DDR2 (human)): 100%; kinase still bound, per cent of control (ERBB2 (human)): 100%; kinase still bound, per cent of control (TLK2 (human)): 100%; kinase still bound, per cent of control (PRKG1 (human)): 100%; kinase still bound, per cent of control (ACVR2A (human)): 100%; kinase still bound, per cent of control (SRPK3 (human)): 100%; kinase still bound, per cent of control (MAPK15 (human)): 100%
